A short description of this experiment: case report: enlarged prostate with frequent urination. Format: in vivo, human. Conditions: person, prescribed for enlarged prostate. From the text:
The 9-herb composition and Incontinence. Person diagnosed with having an enlarged prostate suffered from frequent-urination problems including increased daily frequency and reduced volume. They had the urge to urinate every two hours and the amount was only a few drops. Their symptoms were attributed to old age. […] After a period of time on this regimen, their urinary frequency decreased. The person reports that they only go to the bathroom every four hours instead of every two hours during the day. They are able to urinate what they consider a normal amount of urine in a steady stream as opposed to the dribbling they experienced prior to taking the 9-herb composition. The biggest benefit they experienced, however, is sleeping through the night without having to get up and go to the bathroom. Because they are sleeping better, they have more energy throughout the day.

As for `CC(C)(C)NC(=O)[C@H]1CC[C@H]2[C@@H]3CC[C@H]4NC(=O)C=C[C@]4(C)[C@H]3CC[C@]12C` [PROSCAR], the urination problem result is “did not alleviate the urination problem”.

The record behind these values is patent publication US7449202B1, “Compositions and methods for prostate and kidney health and disorders, an herbal preparation” (Integrated Chinese Medicine Holdings, Ltd., priority 2003, dated 2008).
